According to the supplement of paper PMC10331698:
± gives the standard deviation of the averaged measurements.

Columns and labels:
Test in all cases: level (log10 ratio to DMSO vehicle control); higher = higher biomarker level / cell amount than vehicle control
Details in all cases: in DMSO
[1] = compound: FC(F)(F)C(F)(F)C(F)(F)C(F)(F)C(F)(F)C(F)(F)CC1CO1 [3-(Perfluorohexyl)-1,2-epoxypropane]
Procedure: (§1)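 BioMAP Diversity Plus panel of 12 human primary cell co-culture systems (3C, 4H, LPS, SAg, BT, BF4T, BE3C, CASM3C, HDF3CGF, KF3CT, MyoF, Mphg). Compounds were added 1 h before stimulation and left for 24 h (MyoF 48 h; BT 72 h for soluble read-outs or 6 d for IgG). Biomarkers were read by ELISA, cytotoxicity by SRB, PBMC viability and proliferation by Alamar Blue. Each well value was divided by the mean of 8 DMSO control wells on the same plate and log10 transformed; duplicate blinded samples were tested at 4 concentrations.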

Heptafluorobutyl iodide = compound: FC(F)(F)C(F)(F)C(F)(F)CI [Heptafluorobutyl iodide]
Procedure: as §1

[2] = compound: FC(F)(F)C(F)(F)CNCC(F)(F)C(F)(F)F [Bis(1H,1H-perfluoropropyl)amine]
Procedure: as §1

Octafluoroadipamide = compound: NC(=O)C(F)(F)C(F)(F)C(F)(F)C(F)(F)C(N)=O [Octafluoroadipamide]
Procedure: as §1

[3] = compound: NC(=O)C(F)(F)C(F)(F)C(F)(F)C(F)F
Procedure: as §1

[4] = compound: O=C(O)C(F)(F)C(F)(F)C(F)(F)C(F)(F)C(F)(F)C(F)(F)C(F)(F)C(F)(F)C(F)(F)C(F)F [11-H-Perfluoroundecanoic acid]
Procedure: as §1

[5] = compound: O=S(=O)(Cl)C(F)(F)C(F)(F)C(F)(F)C(F)(F)C(F)(F)C(F)(F)C(F)(F)C(F)(F)F [Perfluoro-1-octanesulfonyl chloride]
Procedure: as §1

Test System | level (log10) ([1]; 6700 nM) | level (log10) ([1]; 20000 nM) | level (log10) ([1]; 60000 nM) | level (log10) (Heptafluorobutyl iodide; 6700 nM) | level (log10) (Heptafluorobutyl iodide; 20000 nM) | level (log10) (Heptafluorobutyl iodide; 60000 nM) | level (log10) ([2]; 6700 nM) | level (log10) ([2]; 20000 nM) | level (log10) ([2]; 60000 nM) | level (log10) (Octafluoroadipamide; 6700 nM) | level (log10) (Octafluoroadipamide; 20000 nM) | level (log10) (Octafluoroadipamide; 60000 nM) | level (log10) ([3]; 6700 nM) | level (log10) ([3]; 20000 nM) | level (log10) ([3]; 60000 nM) | level (log10) ([4]; 6700 nM) | level (log10) ([4]; 20000 nM) | level (log10) ([5]; 6700 nM) | level (log10) ([5]; 20000 nM) | level (log10) ([5]; 60000 nM)
HDF3CGF:CXCL11/I-TAC | 0.01 ± 0.016 | 0.015 ± 0.0028 | -0.003 ± 0.027 | -0.0515 ± 0.019 | -0.069 ± 0.076 | -0.091 ± 0.045 | -0.0065 ± 0.0092 | -0.0045 ± 0.013 | 0.0195 ± 0.035 | -0.0025 ± 0.011 | 0 ± 0.023 | 0.018 ± 0.0014 | -0.0035 ± 0.016 | -0.002 ± 0.013 | -0.002 ± 0.027 | -0.127 ± 0.023 | -0.2405 ± 0.0021 | -0.038 ± 0.0028 | -0.0315 ± 0.018 | -0.0145 ± 0.022
HDF3CGF:Collagen I | -0.001 ± 0.025 | -0.0145 ± 0.012 | 0.0545 ± 0.04 | 0.0275 ± 0.03 | 0.021 ± 0.0099 | 0.065 ± 0.047 | -0.0295 ± 0.015 | -0.015 ± 0.017 | 0.0085 ± 0.056 | -0.005 ± 0.0057 | -0.015 ± 0.033 | 0.0045 ± 0.042 | -0.005 ± 0.058 | 0.005 ± 0.021 | 0.027 ± 0.02 | -0.093 ± 0.034 | -0.077 ± 0.025 | 0.001 ± 0.0057 | -0.01 ± 0.0071 | 0.0135 ± 0.066
HDF3CGF:Collagen III | -0.0075 ± 0.012 | -0.005 ± 0.0099 | 0.0155 ± 0.046 | -0.043 ± 0.12 | -0.051 ± 0.018 | -0.0075 ± 0.11 | -0.002 ± 0.018 | -0.002 ± 0.0042 | 0.0325 ± 0.036 | 0.0035 ± 0.044 | 0.0225 ± 0.00071 | 0.023 ± 0.052 | -0.011 ± 0.0042 | -0.0155 ± 0.012 | -0.0165 ± 0.00071 | -0.172 ± 0.033 | -0.294 ± 0.03 | 0.0055 ± 0.021 | 0.0365 ± 0.015 | -0.008 ± 0.062
HDF3CGF:EGFR | -0.0135 ± 0.011 | -0.01 ± 0.011 | -0.0055 ± 0.036 | -0.0495 ± 0.064 | -0.054 ± 0.072 | -0.0055 ± 0.04 | -0.0205 ± 0.06 | -0.0615 ± 0.14 | 0.034 ± 0.025 | -0.012 ± 0.082 | 0.0015 ± 0.054 | 0.0145 ± 0.087 | 0.001 ± 0.033 | 0.0025 ± 0.046 | 0.0125 ± 0.043 | -0.022 ± 0.011 | -0.124 ± 0.018 | -0.082 ± 0.045 | -0.0785 ± 0.015 | 0.031 ± 0.035
HDF3CGF:M-CSF | 0 ± 0.014 | -0.002 ± 0.0042 | -0.019 ± 0.0085 | -0.0665 ± 0.063 | -0.065 ± 0.023 | -0.07 ± 0.027 | -0.0125 ± 0.025 | -0.018 ± 0.031 | -0.029 ± 0.069 | -0.017 ± 0.054 | -0.0215 ± 0.073 | 0.023 ± 0.0028 | -0.0065 ± 0.0078 | -0.008 ± 0.0014 | 0.017 ± 0.031 | -0.0345 ± 0.005 | -0.108 ± 0.029 | -0.0065 ± 0.016 | 0.0245 ± 0.021 | 0.0195 ± 0.011
HDF3CGF:MMP-1 | 0.0005 ± 0.0021 | 0.004 ± 0.0042 | 0.003 ± 0.0071 | -0.014 ± 0.028 | -0.0195 ± 0.021 | -0.0255 ± 0.025 | 0.001 ± 0.0028 | -0.0145 ± 0.0092 | 0.0075 ± 0.0092 | 0.0035 ± 0.005 | 0.002 ± 0.011 | 0.0045 ± 0.012 | 0.0005 ± 0.00071 | -0.006 ± 0.0042 | 0.003 ± 0.0071 | -0.096 ± 0.034 | -0.0815 ± 0.005 | -0.0435 ± 0.019 | -0.017 ± 0.0099 | 0.016 ± 0.028
HDF3CGF:PAI-I | -0.0375 ± 0.019 | -0.022 ± 0.033 | -0.0115 ± 0.05 | 0.0035 ± 0.043 | -0.004 ± 0.03 | -0.018 ± 0.027 | -0.001 ± 0.0071 | -0.0105 ± 0.013 | 0 ± 0.033 | 0.018 ± 0.0099 | 0.018 ± 0.0014 | 0.009 ± 0.0014 | -0.012 ± 0.011 | -0.016 ± 0.0099 | 0 ± 0.038 | 0.018 ± 0.0099 | -0.0045 ± 0.0035 | 0.0185 ± 0.0021 | 0.0435 ± 0.0064 | 0.0255 ± 0.032
HDF3CGF:Proliferation 72hr | -0.014 ± 0.052 | -0.0355 ± 0.049 | 0 ± 0.069 | 0.0025 ± 0.0064 | -0.012 ± 0.0099 | -0.0085 ± 0.039 | 0.002 ± 0.041 | -0.008 | 0.028 ± 0.038 | -0.041 ± 0.052 | 0.0825 ± 0.05 | -0.0115 ± 0.029 | -0.0005 ± 0.046 | -0.0245 ± 0.06 | -0.0205 ± 0.037 | -0.253 ± 0.048 | -0.443 ± 0.0028 | 0.126 ± 0.04 | 0.155 ± 0.1 | -0.0105 ± 0.0035
HDF3CGF:TIMP-1 | 0.0085 ± 0.025 | 0.0265 ± 0.025 | 0.0305 ± 0.012 | -0.0195 ± 0.037 | -0.019 ± 0.0085 | -0.059 ± 0.025 | 0 ± 0.0099 | -0.0525 ± 0.049 | 0.011 ± 0.0071 | 0.002 ± 0.0071 | 0.0015 ± 0.012 | 0.0035 ± 0.021 | -0.0005 ± 0.0064 | -0.0095 ± 0.043 | 0.0045 ± 0.039 | 0.0005 ± 0.096 | 0.1 ± 0.072 | 0.016 ± 0.038 | 0.053 ± 0.0057 | 0.139 ± 0.016
KF3CT:CCL2/MCP-1 | 0.0005 ± 0.0092 | -0.0125 ± 0.03 | 0.0075 ± 0.053 | -0.0045 ± 0.0021 | -0.018 ± 0.013 | 0.0195 ± 0.016 | -0.0015 ± 0.05 | 0.001 ± 0.048 | -0.012 ± 0.042 | -0.017 ± 0.0085 | -0.026 ± 0.013 | -0.001 ± 0.021 | -0.0055 ± 0.018 | -0.0245 ± 0.0078 | 0.0205 ± 0.026 | -0.043 ± 0.021 | -0.129 ± 0.0078 | -0.031 ± 0.025 | -0.0315 ± 0.019 | -0.0485 ± 0.016
KF3CT:CD54/ICAM-1 | 0.006 ± 0.0071 | 0.026 | 0.0085 ± 0.0092 | -0.008 ± 0.0071 | -0.004 ± 0.0028 | -0.012 ± 0.0014 | -0.011 ± 0.011 | -0.008 ± 0.0085 | 0.012 ± 0.018 | -0.0015 ± 0.0021 | -0.003 | 0.0115 ± 0.022 | -0.0075 ± 0.011 | -0.0255 ± 0.005 | -0.008 ± 0.0014 | -0.0285 ± 0.039 | 0.0945 ± 0.0092 | -0.0055 ± 0.0021 | -0.008 ± 0.0028 | 0.0325 ± 0.016
KF3CT:CXCL8/IL-8 | 0.012 ± 0.018 | 0.0175 ± 0.022 | 0.022 ± 0.0042 | -0.0095 ± 0.00071 | -0.0325 ± 0.005 | -0.015 ± 0.016 | -0.0005 ± 0.005 | -0.0065 ± 0.0092 | 0.0115 ± 0.015 | -0.005 | -0.0055 ± 0.0021 | 0.0095 ± 0.023 | -0.009 ± 0.0028 | 0.011 ± 0.011 | 0.019 ± 0.011 | 0.0005 ± 0.019 | 0.0445 ± 0.012 | 0.006 ± 0.0042 | 0.0095 ± 0.016 | 0.0615 ± 0.025
KF3CT:CXCL10/IP-10 | 0.0285 ± 0.00071 | 0.0305 ± 0.0035 | 0.0295 ± 0.0021 | -0.009 ± 0.0014 | -0.0175 ± 0.0078 | -0.013 ± 0.0028 | -0.0045 ± 0.0078 | -0.0025 ± 0.0035 | 0.0085 ± 0.00071 | -0.002 ± 0.0042 | 0.002 ± 0.0071 | 0.0005 ± 0.005 | -0.001 ± 0.0014 | -0.001 ± 0.013 | 0.0025 ± 0.0064 | -0.036 ± 0.0057 | -0.211 ± 0.011 | -0.0165 ± 0.00071 | -0.0455 ± 0.00071 | -0.16 ± 0.0099
KF3CT:IL-1alpha | -0.0185 ± 0.0078 | 0.0085 ± 0.018 | 0.0015 ± 0.0021 | -0.0025 ± 0.0078 | -0.04 ± 0.0042 | -0.044 ± 0.0057 | 0.0045 ± 0.022 | -0.013 ± 0.0014 | 0.0005 ± 0.046 | 0.014 ± 0.0028 | 0 ± 0.037 | 0.017 ± 0.017 | -0.0165 ± 0.011 | -0.0265 ± 0.005 | 0.008 ± 0.045 | -0.0255 ± 0.00071 | 0.0105 ± 0.04 | -0.013 ± 0.0085 | -0.03 ± 0.02 | -0.055 ± 0.0014
